Experimental data from patent US11059810B2, “Pharmaceutically acceptable salt as renal outer medullary potassium channel inhibitor” (Jiangsu Hengrui Medicine Co., Ltd., priority 2016, dated 2021).

Experiments:
[1] = Pharmacokinetics assay in SD rats after intragastric administration (plasma LC/MS/MS); type: in vivo; details: po 5.0 mg/kg; for CL/F: read-out: Cl/F—obs (clearance)
Experimental: SD rats were used as test animals. The drug concentration in plasma at different time points was determined by LC/MS/MS method after intragastrical administration of the crystal form 2 of the malate of the present invention and free form. The pharmacokinetic behavior and property of the crystal form 2 of the malate of the present invention and free form were studied and evaluated in SD rats.
Samples: crystal form 2 of the malate of the present invention and free form (the product of Example 1), prepared according to the methods of Examples 14 and 1.
Test animals: 8 healthy SD rats, half male and half female, were divided in two groups, and purchased from SINO-BRITSH SIPPR/BK LAB. ANIMAL LTD., CO, with certificate No.: SOCK (Shanghai) 2008-0016.
Preparation of the test compounds: the test compounds were added to 0.5% CMC-Na to prepare 0.5 mg/mL homogeneous suspensions for oral administration by ultrasound.
Administration: after an overnight fasting, 8 healthy SD rats, half male and half female, were administered the test compounds intragastrically at an administration volume of 10 mL/kg.
After an overnight fasting, 8 healthy SD rats, half male and half female, were administered the test compounds intragastrically. Blood samples (0.1 mL) were taken by jugular vein puncture before administration and at 0.5, 1, 2, 4, 6, 8, 12, and 24 hours after administration, and heparin sodium was used as an anticoagulant. The blood samples were centrifuged for 10 minutes at 3,500 rpm to separate the blood plasma, which was stored at −20° C. The content of the test compound in the plasma of SD rats after intragastric administration was determined by LC/MS/MS method.

[2] = Special stability study of crystal form I (grinding, heating, tableting; XRPD/DSC); type: physicochemical
Excerpt: Crystal form I of the compound of formula (I) prepared according to the method of Example 2 was ground, heated and tableted.

[3] = Stability of crystal forms spread flat in air under lighting, heating and high humidity (purity by HPLC); type: physicochemical
Experimental: The sample of crystal form I of the compound of formula (I) prepared in Example 2 and the sample of crystal form II prepared in Example 3 were spread flat in the air respectively to test the stability under conditions of lighting (4500 Lux), heating (40° C., 60° C.), and high humidity (RH 75%, RH 90%). Samplings were carried out on Day 5 and Day 10.

[4] = Salt formation study (solubility, hygroscopicity); type: physicochemical; details: in words
Excerpt: In a preferred embodiment, the salt can be selected from the group consisting of tartrate, hydrochloride, sulfate, methanesulfonate, phosphate, citrate, maleate, fumarate, malate, benzenesulfonate, p-toluenesulfonate and hydrobromide, and most preferably L-tartrate and malate. The L-tartrate of (R)-5-cyano-N-(1-(2-hydroxy-2-(4-methyl-1-oxo-1,3-dihydroisobenzofuran-5-yl)ethyl) piperidin-4-yl)-4-methoxypicolinamide, i.e. the compound of the following formula (I), can be obtained by reacting (R)-5-cyano-N-(1-(2-hydroxy-2-(4-methyl-1-oxo-1,3-dihydroisobenzofuran-5-yl)ethyl) piperidin-4-yl)-4-methoxypicolinamide with L-tartaric acid. The hydrochloride, sulfate, methanesulfonate, phosphate, citrate, maleate, fumarate, malate, benzenesulfonate, p-toluenesulfonate and hydrobromide of (R)-5-cyano-N-(1-(2-hydroxy-2-(4-methyl-1-oxo-1,3-dihydroisobenzofuran-5-yl)ethyl) piperidin-4-yl)-4-methoxypicolinamide can be prepared by using a similar method. […]

[5] = both sexes, rat, plasma, 0.5% CMC-Na suspension

CL/F [1, 5] [mL/min/kg] | AUClast (area under curve 0→t) ([1]; 0.5% CMC-Na suspension) [ng·h/mL] | purity as detected by HPLC ([3]; 40° C., day 0) [%] | purity as detected by HPLC ([3]; 40° C., day 5) [%] | purity as detected by HPLC ([3]; 40° C., day 10) [%] | purity as detected by HPLC ([3]; 60° C., day 0) [%] | purity as detected by HPLC ([3]; 60° C., day 5) [%] | purity as detected by HPLC ([3]; 60° C., day 10) [%] | purity as detected by HPLC ([3]; Lighting (4500 Lux), day 0) [%] | purity as detected by HPLC ([3]; Lighting (4500 Lux), day 5) [%] | purity as detected by HPLC ([3]; Lighting (4500 Lux), day 10) [%] | purity as detected by HPLC ([3]; RH 75%, day 0) [%] | purity as detected by HPLC ([3]; RH 75%, day 5) [%] | purity as detected by HPLC ([3]; RH 75%, day 10) [%] | purity as detected by HPLC ([3]; RH 90%, day 0) [%] | purity as detected by HPLC ([3]; RH 90%, day 5) [%] | purity as detected by HPLC ([3]; RH 90%, day 10) [%] | SMILES | also measured
6.87 | 13365 | – | – | – | – | – | – | – | – | – | – | – | – | – | – | – | COc1cc(C(=O)NC2CCN(C[C@H](O)c3ccc4c(c3C)COC4=O)CC2)ncc1C#N.O=C(O)CC(O)C(=O)O [Crystal form 2 of the malate, (R)-5-cyano-N-(1-(2-hydroxy-2-(4-methyl-1-oxo-1,3-dihydroisobenzofuran-5-yl)ethyl)piperidin-4-yl)-4-methoxypicolinamide] | half-life ([1]; both sexes, rat, plasma, 0.5% CMC-Na suspension, read-out: T1/2 (half-life) (converted)): 5.24 h; Vd/F ([1]; both sexes, rat, plasma, 0.5% CMC-Na suspension, read-out: Vz/F—obs (apparent distribution volume)): 3.09 L/kg; clearance compared to the free form ([1]; in words): lower; exposure dose compared to the free form ([1]; in words): higher; half-life compared to the free form ([1]; in words): longer
– | – | 99.67 | 99.52 | 99.45 | 99.67 | 99.55 | 99.39 | 99.67 | 99.54 | 99.34 | 99.67 | 99.53 | 99.39 | 99.67 | 99.59 | 99.43 | COc1cc(C(=O)NC2CCN(C[C@H](O)c3ccc4c(c3C)COC4=O)CC2)ncc1C#N.O=C(O)C(O)C(O)C(=O)O [Crystal form I, L-tartrate of (R)-5-cyano-N-(1-(2-hydroxy-2-(4-methyl-1-oxo-1,3-dihydroisobenzofuran-5-yl)ethyl)piperidin-4-yl)-4-methoxypicolinamide] | DSC peak after treatment ([2]; Grinding treatment for 10 minutes in a mortar under nitrogen): 214.17 °C; DSC peak after treatment ([2]; Heating treatment for 3 hours at 80° C.): 214.40 °C; DSC peak after treatment ([2]; Tableting treatment): 214.44 °C; stability of the crystal form ([2]; grinding, heating / pressure (tableting), in words): stable; stability under conditions of lighting, high temperature and high humidity ([3]; in words): stable; stability compared with crystal form II ([3]; spread flat in air, lighting, high temperature and high humidity, in words): significantly better
– | – | 99.47 | 99.38 | 99.15 | 99.47 | 99.22 | 98.87 | 99.47 | 99.23 | 98.62 | 99.47 | 99.30 | 99.10 | 99.47 | 99.30 | 99.10 | COc1cc(C(=O)NC2CCN(C[C@H](O)c3ccc4c(c3C)COC4=O)CC2)ncc1C#N.O=C(O)C(O)C(O)C(=O)O [Crystal form II, L-tartrate of (R)-5-cyano-N-(1-(2-hydroxy-2-(4-methyl-1-oxo-1,3-dihydroisobenzofuran-5-yl)ethyl)piperidin-4-yl)-4-methoxypicolinamide] | –
9.82 | 9283 | – | – | – | – | – | – | – | – | – | – | – | – | – | – | – | COc1cc(C(=O)NC2CCN(C[C@H](O)c3ccc4c(c3C)COC4=O)CC2)ncc1C#N [Free form, (R)-5-cyano-N-(1-(2-hydroxy-2-(4-methyl-1-oxo-1,3-dihydroisobenzofuran-5-yl)ethyl)piperidin-4-yl)-4-methoxypicolinamide] | solubility [4]: low
– | – | – | – | – | – | – | – | – | – | – | – | – | – | – | – | – | COc1cc(C(=O)NC2CCN(C[C@H](O)c3ccc4c(c3C)COC4=O)CC2)ncc1C#N [sulfate, (R)-5-cyano-N-(1-(2-hydroxy-2-(4-methyl-1-oxo-1,3-dihydroisobenzofuran-5-yl)ethyl)piperidin-4-yl)-4-methoxypicolinamide] | hygroscopicity ([4]; salt formation study): obviously hygroscopic
